Data from ChEMBL document CHEMBL1201862, “PubChem BioAssay data set” (2004).
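Grown in 96-well plates, cells were treated for 48 hours with each compound at five concentrations. Insufficient inhibition: endpoint recorded as highest concentration tested. Abbreviation: GI50, concentration required for 50% inhibition of growth.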 Calls of active or inactive are those of the source. No stated cut-off is given here; in the data, active = GI50 up to about 1.1 µM and inactive = higher.

Legend:
Test in all cases: inhibition of tumour cell growth, NCI panel, 48 h
SW-620 = tested on: SW-620
BT-549 = tested on: BT-549
NCI/ADR-RES = tested on: NCI/ADR-RES
OVCAR-8 = tested on: OVCAR-8
PC-3 = tested on: PC-3
EKVX = tested on: EKVX
DU-145 = tested on: DU-145
OVCAR-5 = tested on: OVCAR-5
MCF7 = tested on: MCF7
Hs-578T = tested on: Hs-578T
UO-31 = tested on: UO-31
A498 = tested on: A498
IGROV-1 = tested on: IGROV-1
786-0 = tested on: 786-0
NCI-H23 = tested on: NCI-H23
CCRF-CEM = tested on: CCRF-CEM
HCT-116 = tested on: HCT-116
SNB-19 = tested on: SNB-19
MOLT-4 = tested on: MOLT-4

Measured: GI50

Cc1cc(C)n(CN(Cn2nc(C)cc2C)C2CCCCC2)n1
inactive: SW-620 29.7 µM | BT-549 23.3 µM | NCI/ADR-RES 19.8 µM | OVCAR-8 25.7 µM | PC-3 22.9 µM | EKVX 31.8 µM | DU-145 24.3 µM | OVCAR-5 22.9 µM | MCF7 32.6 µM | Hs-578T > 100 µM | UO-31 20.8 µM | A498 > 100 µM | IGROV-1 20.1 µM | 786-0 23.1 µM | NCI-H23 24 µM | CCRF-CEM 19 µM | HCT-116 22.4 µM | SNB-19 85.1 µM

Cc1cc(N(CCC#N)CCC#N)ccc1C(/N=N/c1ccc([N+](=O)[O-])cc1)=N\NC(=O)c1cc(Cl)ccc1C(=O)c1ccccc1
inactive: SW-620 8.65 µM | BT-549 19 µM | NCI/ADR-RES 12.2 µM | OVCAR-8 6.21 µM | PC-3 6.5 µM | EKVX 6.11 µM | DU-145 10.9 µM | OVCAR-5 26.1 µM | MOLT-4 4.65 µM | MCF7 4.95 µM | Hs-578T 17.4 µM | UO-31 10.1 µM | IGROV-1 3.56 µM | 786-0 7.64 µM | NCI-H23 13.3 µM | CCRF-CEM 2.98 µM | HCT-116 4.23 µM | SNB-19 46.7 µM

N=C(N)Nc1ccc(CC(N)NCC(=O)O)cc1 (stereo not given)
inactive: SW-620 > 25 µM | BT-549 > 25 µM | NCI/ADR-RES > 25 µM | OVCAR-8 > 25 µM | PC-3 > 25 µM | EKVX > 25 µM | DU-145 > 25 µM | OVCAR-5 > 25 µM | MOLT-4 > 25 µM | MCF7 > 25 µM | Hs-578T > 25 µM | UO-31 > 25 µM | A498 > 25 µM | IGROV-1 > 25 µM | 786-0 > 25 µM | NCI-H23 > 25 µM | CCRF-CEM > 25 µM | HCT-116 > 25 µM

CC(NC(=O)C(C)C(=O)Nc1ccc(C(F)(F)F)cc1)C(N)=O (stereo not given)
inactive: SW-620 > 100 µM | BT-549 > 100 µM | NCI/ADR-RES > 100 µM | OVCAR-8 > 100 µM | PC-3 > 100 µM | EKVX > 100 µM | DU-145 > 100 µM | OVCAR-5 > 100 µM | MOLT-4 > 10 µM | MCF7 > 100 µM | Hs-578T > 100 µM | UO-31 > 100 µM | IGROV-1 > 100 µM | 786-0 > 100 µM | NCI-H23 > 100 µM | CCRF-CEM > 100 µM | HCT-116 > 100 µM | SNB-19 94 µM

CCOC(=O)COc1c(OC)cc(C2C3=C(COC3=O)Oc3cc4c(cc32)OCO4)cc1OC (stereo not given)
active: SW-620 0.476 µM | MOLT-4 0.417 µM | NCI-H23 0.646 µM | CCRF-CEM 0.229 µM | HCT-116 0.773 µM
inactive: BT-549 21.9 µM | NCI/ADR-RES 3.37 µM | OVCAR-8 5.69 µM | PC-3 1.87 µM | EKVX 4.02 µM | DU-145 4.5 µM | OVCAR-5 > 84.1 µM | MCF7 3.27 µM | Hs-578T 4.51 µM | UO-31 13.4 µM | IGROV-1 1.83 µM | 786-0 2.77 µM | SNB-19 13 µM

CNc1ncnc2c1ncn2C1C=CC(COS(N)(=O)=O)C1 (stereo not given)
inactive: SW-620 > 100 µM | BT-549 > 100 µM | NCI/ADR-RES > 100 µM | OVCAR-8 > 100 µM | PC-3 > 100 µM | EKVX > 100 µM | DU-145 > 100 µM | MOLT-4 > 100 µM | MCF7 > 100 µM | Hs-578T > 100 µM | UO-31 > 100 µM | A498 > 100 µM | IGROV-1 > 100 µM | 786-0 > 100 µM | NCI-H23 > 100 µM | CCRF-CEM > 100 µM | HCT-116 > 100 µM | SNB-19 > 100 µM

CN(c1c(Cl)cccc1Cl)S(=O)(=O)c1ccccc1[N+](=O)[O-]
inactive: SW-620 > 100 µM | BT-549 > 100 µM | NCI/ADR-RES > 100 µM | OVCAR-8 > 100 µM | PC-3 > 100 µM | EKVX > 100 µM | DU-145 > 100 µM | OVCAR-5 > 100 µM | MOLT-4 > 100 µM | MCF7 > 100 µM | Hs-578T > 100 µM | UO-31 > 100 µM | IGROV-1 > 100 µM | 786-0 > 100 µM | NCI-H23 > 100 µM | HCT-116 > 100 µM | SNB-19 > 100 µM

O=c1[nH]cc(-c2c[nH]c3ccccc23)nc1-c1c[nH]c2ccccc12
inactive: SW-620 4.9 µM | BT-549 15.3 µM | NCI/ADR-RES 16.4 µM | OVCAR-8 12.8 µM | PC-3 14.5 µM | EKVX 12.2 µM | DU-145 13.2 µM | OVCAR-5 11.2 µM | MCF7 10.2 µM | Hs-578T 14.2 µM | UO-31 8.51 µM | A498 14.7 µM | IGROV-1 2.92 µM | 786-0 11.3 µM | NCI-H23 14.7 µM | HCT-116 10.8 µM | SNB-19 15.8 µM

CCCN(CCC)C(=S)Sc1nc(C)nc(N2CCN(c3nc(C)nc(SC(=S)N(CCC)CCC)c3[N+](=O)[O-])CC2)c1[N+](=O)[O-]
active: MCF7 0.248 µM | CCRF-CEM 0.628 µM
inactive: SW-620 3.53 µM | BT-549 5.2 µM | NCI/ADR-RES 41.5 µM | OVCAR-8 5.5 µM | PC-3 15.2 µM | EKVX 30.5 µM | DU-145 26.8 µM | OVCAR-5 23.4 µM | MOLT-4 3.23 µM | Hs-578T > 63.7 µM | UO-31 17.9 µM | IGROV-1 11.4 µM | 786-0 3.62 µM | NCI-H23 12.4 µM | HCT-116 2.03 µM | SNB-19 22.6 µM

CC(=O)Nc1ccc(OC/C(N)=N/NC(=O)c2ccncc2)cc1
inactive: SW-620 > 100 µM | BT-549 > 100 µM | NCI/ADR-RES > 100 µM | OVCAR-8 > 100 µM | PC-3 > 100 µM | EKVX > 100 µM | DU-145 > 100 µM | OVCAR-5 > 100 µM | MOLT-4 > 100 µM | MCF7 > 100 µM | Hs-578T > 100 µM | A498 > 100 µM | IGROV-1 > 100 µM | 786-0 > 100 µM | NCI-H23 > 100 µM | CCRF-CEM > 100 µM | HCT-116 > 100 µM | SNB-19 > 100 µM

O=C1N[C@@H]2c3c(Br)sc(Br)c3C(=O)[C@@H]2O1
inactive: SW-620 1.96 µM | BT-549 8.57 µM | NCI/ADR-RES 3.66 µM | OVCAR-8 2.11 µM | PC-3 6.41 µM | EKVX 2.13 µM | DU-145 15 µM | OVCAR-5 13.7 µM | MOLT-4 1.89 µM | MCF7 3.98 µM | Hs-578T 19.7 µM | UO-31 10.1 µM | A498 16.7 µM | IGROV-1 4.84 µM | 786-0 7.11 µM | NCI-H23 2.83 µM | CCRF-CEM 1.57 µM | SNB-19 15.8 µM

N=C(/C=C/c1ccc(-c2cn3cc(/C=C/C(=N)N4CCOCC4)ccc3n2)cc1)N1CCOCC1
inactive: SW-620 > 100 µM | BT-549 > 100 µM | NCI/ADR-RES > 100 µM | OVCAR-8 > 100 µM | PC-3 > 100 µM | EKVX > 100 µM | DU-145 > 100 µM | OVCAR-5 > 100 µM | MCF7 94 µM | Hs-578T > 100 µM | UO-31 > 100 µM | A498 > 100 µM | IGROV-1 > 100 µM | 786-0 > 100 µM | NCI-H23 > 100 µM | HCT-116 > 100 µM | SNB-19 > 100 µM

CN(C)c1ccc(C=C2N=C(c3ccccc3)N(c3cc(C(=O)c4ccccc4)ccc3N3C(=O)/C(=C/c4ccc(N(C)C)cc4)N=C3c3ccccc3)C2=O)cc1
inactive: SW-620 5.32 µM | BT-549 28.3 µM | NCI/ADR-RES 4.06 µM | OVCAR-8 11.5 µM | PC-3 3.51 µM | EKVX 20.5 µM | DU-145 5.74 µM | OVCAR-5 35.5 µM | MOLT-4 3.38 µM | MCF7 3.33 µM | Hs-578T 4.2 µM | UO-31 15.8 µM | A498 3.48 µM | IGROV-1 5.86 µM | 786-0 6.17 µM | CCRF-CEM 3.49 µM | HCT-116 3.76 µM | SNB-19 7.94 µM

Cc1ccc(CS(=O)(=O)C/N=C2\Sc3ccccc3N\C2=C/C(=O)c2ccc(Cl)cc2)cc1
active: MCF7 0.703 µM | CCRF-CEM 1 µM
inactive: SW-620 > 10 µM | BT-549 > 10 µM | NCI/ADR-RES > 10 µM | OVCAR-8 > 10 µM | PC-3 > 10 µM | DU-145 > 10 µM | OVCAR-5 > 10 µM | MOLT-4 6.08 µM | Hs-578T 9.55 µM | IGROV-1 > 10 µM | 786-0 > 10 µM | NCI-H23 > 10 µM | HCT-116 > 10 µM | SNB-19 > 10 µM

C/C=C(\C)C(=O)OC1/C=C(\C)CC/C=C(\C)CC2OC(=O)C(C)(OC(C)=O)C12 (stereo not given)
inactive: SW-620 > 100 µM | BT-549 > 100 µM | NCI/ADR-RES > 100 µM | OVCAR-8 > 100 µM | PC-3 > 100 µM | EKVX > 100 µM | DU-145 > 100 µM | OVCAR-5 > 100 µM | MOLT-4 > 100 µM | MCF7 > 100 µM | Hs-578T > 100 µM | A498 > 100 µM | IGROV-1 > 100 µM | 786-0 > 100 µM | NCI-H23 > 100 µM | CCRF-CEM > 100 µM | HCT-116 > 100 µM | SNB-19 > 100 µM
